# Measured values published in US9493444B2 (Merck Patent GmbH, priority 2012, dated 2016).
# Tested on: Wnt pathway (TCF-dependent transcription in HEK293 luciferase reporter cell line with ER-DSH construct)
# Assay: Cellular assay for Wnt pathway activity (luciferase reporter)
# Assay type: cell-based
# Conditions: Homo sapiens; Wnt pathway inhibition, HEK293 luciferase reporter cells (ER-DSH, TCF promoter), 24 hours incubation, estrogen-induced
# Protocol: 1. Cellular Assay for Wnt Pathway Activity
# Compounds were tested for their Wnt pathway inhibitory activities using a luciferase reporter cell based assay. A HEK293 luciferase reporter cell line was used which contained an Estrogen Receptor-Dishevelled (ER-DSH) construct and a T-Cell Factor (TCF) dependent gene promoter luciferase construct.
# Compounds, in concentrations from 30 μM down to 1 nM, were incubated for 24 hours on the cells, which were induced for TCF-dependent transcription by the addition of estrogen (10). Luciferase activities were determined using the ONE GLO Luciferase Assay System (Promega) and the ENVISION microplate reader (Perkin Elmer). For analysis, the obtained data were normalized against the untreated vehicle control and fitted for determination of the IC50 values using the Assay Explorer software (Accelrys).
row,SMILES,IC50
1,"CC(=O)N(C)CCN(C)c1cncc(Oc2noc3ccccc23)n1 [Compound 224, N-(2-{[6-(Benzo[d]isoxazol-3-yloxy)-pyrazin-2-yl]-methyl-amino}-ethyl)-N-methyl-acetamide]",< 200 nM
2,"COc1ccc(Oc2cncc(N3CCCC(CNC(=O)OC(C)(C)C)C3)n2)cc1 (stereo not shown) [Compound 40, {1-[6-(4-Methoxy-phenoxy)-pyrazin-2-yl]-piperidin-3-ylmethyl}-carbamic acid tert-butyl ester]",1000 to 10000 nM
3,"NC(=O)CCNc1cncc(Oc2ccc(-c3cnc(N)cn3)cc2)n1 [Compound 301, 3-{6-[4-(5-Amino-pyrazin-2-yl)-phenoxy]-pyrazin-2-ylamino}-propionamide]",1000 to 10000 nM
4,"CC(=O)Nc1ccc(Oc2cncc(N(C)CCN(C)C(C)=O)n2)cc1 [Compound 94, N-(2-{[6-(4-Acetylamino-phenoxy)-pyrazin-2-yl]-methyl-amino}-ethyl)-N-methyl-acetamide]",200 to 1000 nM
5,"CC(=O)N(C)CCCc1cncc(Oc2ccc(-c3cnc(N)cn3)cc2)n1 [Compound 214, N-(3-{6-[4-(5-Amino-pyrazin-2-yl)-phenoxy]-pyrazin-2-yl}-propyl)-N-methyl-acetamide]",200 to 1000 nM
6,"CC(=O)N(C)CCN(C)c1cncc(Oc2ccc(-c3ccc(CCN)cc3)cc2)n1 [Compound 251, N-[2-({6-[4′-(2-Amino-ethyl)-biphenyl-4-yloxy]-pyrazin-2-yl}-methyl-amino)-ethyl]-N-methyl-acetamide]",< 200 nM
7,"CC(=O)N(C)CCN(C)c1cncc(Oc2ccc(-c3cc(Br)cnc3N)cc2)n1 [Compound 252, N-[2-({6-[4-(2-Amino-5-bromo-pyridin-3-yl)-phenoxy]-pyrazin-2-yl}-methyl-amino)-ethyl]-N-methyl-acetamide]",200 to 1000 nM
8,"CC(=O)N(C)CCNc1cncc(Oc2ccc(-c3ccc(S(N)(=O)=O)cn3)cc2)n1 [Compound 294, N-Methyl-N-(2-{6-[4-(5-sulfamoyl-pyridin-2-yl)-phenoxy]-pyrazin-2-ylamino}-ethyl)-acetamide]",1000 to 10000 nM
9,"CC(=O)N(C)CCCc1cncc(Oc2ccc(-c3ccncc3C#N)cc2F)n1 [Compound 266, N-(3-{6-[4-(3-Cyano-pyridin-4-yl)-2-fluoro-phenoxy]-pyrazin-2-yl}-propyl)-N-methyl-acetamide]",< 200 nM
10,"CCC1Sc2ccccc2NC1c1ccc(Oc2cncc(N(C)CCN(C)C(C)=O)n2)cc1 (stereo not shown) [Compound 135, N-[2-({6-[4-(2-Ethyl-3,4-dihydro-2H-benzo[1,4]thiazin-3-yl)-phenoxy]-pyrazin-2-yl}-methyl-amino)-ethyl]-N-methyl-acetamide]",1000 to 10000 nM
11,"CC(=O)N(C)CCN(C)c1cncc(Oc2ccc(-c3cnc(N)cn3)cc2F)n1 [Compound 238, N-[2-({6-[4-(5-Amino-pyrazin-2-yl)-2-fluoro-phenoxy]-pyrazin-2-yl}-methyl-amino)-ethyl]-N-methyl-acetamide]",< 200 nM
12,"CC(=O)N(C)CCN(C)c1cncc(Oc2ccccc2F)n1 [Compound 51, N-(2-{[6-(2-Fluoro-phenoxy)-pyrazin-2-yl]-methyl-amino}-ethyl)-N-methyl-acetamide]",200 to 1000 nM
13,"CC(=O)N(C)CCN(C)c1cncc(Oc2ccc(Cl)c(C(F)(F)F)c2)n1 [Compound 88, N-(2-{[6-(4-Chloro-3-trifluoro-methyl-phenoxy)-pyrazin-2-yl]-methyl-amino}-ethyl)-N-methyl-acetamide]",1000 to 10000 nM
14,"COC(=O)N(C)CCN(C)c1cncc(Oc2ccc(OC)cc2)n1 [Compound 78, (2-{[6-(4-Methoxy-phenoxy)-pyrazin-2-yl]-methyl-amino}-ethyl)-methyl-carbamic acid methyl ester]",1000 to 10000 nM
15,"CC(=O)N(C)CCN(C)c1cncc(Oc2ccc(-c3ccnnc3)cc2)n1 [Compound 261, N-Methyl-N-(2-{methyl-[6-(4-pyridazin-4-yl-phenoxy)-pyrazin-2-yl]-amino}-ethyl)-acetamide]",< 200 nM
16,"CCc1ccc(Oc2cncc(N(C)CCN(C)C(C)=O)n2)cc1 [Compound 97, N-(2-{[6-(4-Ethyl-phenoxy)-pyrazin-2-yl]-methyl-amino}-ethyl)-N-methyl-acetamide]",< 200 nM
